According to US9029553B2, “2-anilino nicotinyl linked 2-amino benzothiazole conjugates and process for the preparation thereof” (Council of Scientific & Industrial Research, priority 2011, dated 2015):

Tests used:
Experiment in all cases: NCI SRB GI50 screen
Assay type in all cases: cell-based
[1] = system: A549/ATCC; settings: Homo sapiens, Non-small lung, 48 hrs exposure, read-out: Growth Inhibition GI50 A549/ATCC
Description: (§1) 2-Anilino nicotinyl linked 2-amino benzothiazole conjugates of formula 9-12 were tested against fifty nine human cancer cell lines derived from nine cancer types (leukemia, non-small cell lung cancer, colon cancer, CNS cancer, melanoma, ovarian cancer, renal cancer, prostate cancer and breast cancer) as per NCI protocol. For each compound, dose response curves for individual cell lines were measured at a minimum of five concentrations at 10 fold dilutions. A protocol of 48 hrs continuous drug exposure was used, and a sulforhodamine B (SRB) protein assay was used to estimate cell viability or growth.

[2] = system: CCRF-CEM; settings: Homo sapiens, Leukemia, 48 hrs exposure, read-out: Growth Inhibition GI50 CCRF-CEM
Description: as §1

[3] = system: DU-145; settings: Homo sapiens, Prostate, 48 hrs exposure, read-out: Growth Inhibition GI50 DU-145
Description: as §1

[4] = system: EKVX; settings: Homo sapiens, Non-small lung, 48 hrs exposure, read-out: Growth Inhibition GI50 EKVX
Description: as §1

[5] = system: HL-60(TB); settings: Homo sapiens, Leukemia, 48 hrs exposure, read-out: Growth Inhibition GI50 HL-60(TB)
Description: as §1

[6] = system: HOP-92; settings: Homo sapiens, Non-small lung, 48 hrs exposure, read-out: Growth Inhibition GI50 HOP-92
Description: as §1

[7] = system: HT29; settings: Homo sapiens, HT-29; Colon, 48 hrs exposure; read-out: Growth Inhibition GI50 HT29
Description: as §1

[8] = system: K-562; settings: Homo sapiens, K562; Leukemia, 48 hrs exposure; read-out: Growth Inhibition GI50 K-562
Description: as §1

[9] = system: MALME-3M; settings: Homo sapiens, read-out: Growth Inhibition GI50 MALME-3M, Melanoma, 48 hrs exposure
Description: as §1

[10] = system: MCF7; settings: Homo sapiens, Breast, 48 hrs exposure, read-out: Growth Inhibition GI50 MCF7
Description: as §1

[11] = system: MDA-MB-435; settings: Homo sapiens, Melanoma, 48 hrs exposure, read-out: Growth Inhibition GI50 MDA-MB-435
Description: as §1

[12] = system: MDA-MB-468; settings: Homo sapiens, Breast, 48 hrs exposure, read-out: Growth Inhibition GI50 MDA-MB-468
Description: as §1

[13] = system: MOLT-4; settings: Homo sapiens, Leukemia, 48 hrs exposure, read-out: Growth Inhibition GI50 MOLT-4
Description: as §1

[14] = system: NCI-H226; settings: Homo sapiens, Non-small lung, 48 hrs exposure, read-out: Growth Inhibition GI50 NCI-H226
Description: as §1

[15] = system: NCI-H522; settings: Homo sapiens, Non-small lung, 48 hrs exposure, read-out: Growth Inhibition GI50 NCI-H522
Description: as §1

[16] = system: NCI/ADR-RES; settings: Homo sapiens, Ovarian, 48 hrs exposure, read-out: Growth Inhibition GI50 NCI/ADR-RES
Description: as §1

[17] = system: OVCAR-3; settings: Homo sapiens, Ovarian, 48 hrs exposure, read-out: Growth Inhibition GI50 OVCAR-3
Description: as §1

[18] = system: OVCAR-4; settings: Homo sapiens, Ovarian, 48 hrs exposure, read-out: Growth Inhibition GI50 OVCAR-4
Description: as §1

[19] = system: PC-3; settings: Homo sapiens, Prostate, 48 hrs exposure, read-out: Growth Inhibition GI50 PC-3
Description: as §1

[20] = system: SF-295; settings: Homo sapiens, CNS, 48 hrs exposure, read-out: Growth Inhibition GI50 SF-295
Description: as §1

[21] = system: SF-539; settings: Homo sapiens, CNS, 48 hrs exposure, read-out: Growth Inhibition GI50 SF-539
Description: as §1

[22] = system: SK-MEL-28; settings: Homo sapiens, Melanoma, 48 hrs exposure, read-out: Growth Inhibition GI50 SK-MEL-28
Description: as §1

[23] = system: SK-MEL-2; settings: Homo sapiens, Melanoma, 48 hrs exposure, read-out: Growth Inhibition GI50 SK-MEL-2
Description: as §1

[24] = system: SK-MEL-5; settings: Homo sapiens, Melanoma, 48 hrs exposure, read-out: Growth Inhibition GI50 SK-MEL-5
Description: as §1

[25] = system: SN12C; settings: Homo sapiens, Renal, 48 hrs exposure, read-out: Growth Inhibition GI50 SN12C
Description: as §1

[26] = system: Sw-620; settings: Homo sapiens, Colon, 48 hrs exposure, read-out: Growth Inhibition GI50 SW-620
Description: as §1

[27] = system: T-47D; settings: Homo sapiens, T47D; Breast, 48 hrs exposure; read-out: Growth Inhibition GI50 T-47D
Description: as §1

[28] = system: TK-10; settings: Homo sapiens, Renal, 48 hrs exposure, read-out: Growth Inhibition GI50 TK-10
Description: as §1

[29] = system: U251; settings: Homo sapiens, U-251; CNS, 48 hrs exposure; read-out: Growth Inhibition GI50 U251
Description: as §1

[30] = system: UACC-62; settings: Homo sapiens, Melanoma, 48 hrs exposure, read-out: Growth Inhibition GI50 UACC-62
Description: as §1

[31] = system: UO-31; settings: Homo sapiens, Renal, 48 hrs exposure, read-out: Growth Inhibition GI50 UO-31
Description: as §1

SMILES	GI50 [1] [nM]	GI50 [2] [nM]	GI50 [3] [nM]	GI50 [4] [nM]	GI50 [5] [nM]	GI50 [6] [nM]	GI50 [7] [nM]	GI50 [8] [nM]	GI50 [9] [nM]	GI50 [10] [nM]	GI50 [11] [nM]	GI50 [12] [nM]	GI50 [13] [nM]	GI50 [14] [nM]	GI50 [15] [nM]	GI50 [16] [nM]	GI50 [17] [nM]	GI50 [18] [nM]	GI50 [19] [nM]	GI50 [20] [nM]	also measured
O=C(Nc1nc2ccc(F)cc2s1)c1cccnc1Nc1ccc(Cl)cc1 [Compound 9, N3-(6-fluoro-1,3-benzothiazol-2-yl)-2-(4-chloroanilino)nicotinamide]	2320	1060	3670	1940	1740	1690	2860	726	1940	2380	2990	1610	2220	2320	1020	2090	2170	2920	2130	1800	GI50 [21]: 2700 nM; GI50 [22]: 3510 nM; GI50 [23]: 1250 nM; GI50 [24]: 1110 nM; GI50 [25]: 2300 nM; GI50 [26]: 1020 nM; GI50 [27]: 730 nM; GI50 [28]: 3000 nM; GI50 [29]: 3030 nM; GI50 [30]: 1940 nM; GI50 [31]: 1940 nM
O=C(Nc1nc2ccc(F)cc2s1)c1cccnc1Nc1ccc(Cl)cc1Cl [Compound 10, N3-(6-fluoro-1,3-benzothiazol-2-yl)-2-(2,4-dichloroanilino)nicotinamide]	2960	1850	3530	2070	1830	1480	2980	1780	2380	3070	3030	1880	2270	2700	1480	2510	2440	2960	2110	1830	GI50 [21]: 4020 nM; GI50 [22]: 4090 nM; GI50 [23]: 1740 nM; GI50 [24]: 1710 nM; GI50 [25]: 2320 nM; GI50 [26]: 3400 nM; GI50 [27]: 1930 nM; GI50 [28]: 3050 nM; GI50 [29]: 2900 nM; GI50 [30]: 2120 nM; GI50 [31]: 1100 nM
COc1cc(Nc2ncccc2C(=O)Nc2nc3ccc(F)cc3s2)cc(OC)c1OC [Compound 11, N3-(6-fluoro-1,3-benzothiazol-2-yl)-2-(3,4,5-trimethoxyanilino)nicotinamide]	3110	3260	5500	2700	1860	1480	5150	1680	3270	3230	2870	1220	2110	2950	1550	2920	2770	2730	2730	2550	GI50 [21]: 3840 nM; GI50 [22]: 4330 nM; GI50 [23]: 2340 nM; GI50 [24]: 1630 nM; GI50 [25]: 4730 nM; GI50 [27]: 2300 nM; GI50 [29]: 3010 nM; GI50 [30]: 1710 nM; GI50 [31]: 3370 nM
COc1ccc2nc(NC(=O)c3cccnc3Nc3cc(OC)c(OC)c(OC)c3)sc2c1 [Compound 12, N-3-(6-methoxy-1,3-benzothiazol-2-yl)-2-(3,4,5-trimethoxyanilino) nicotinamide]	7380	20100	14600	11500	32300	2240	17700	8910	10100	510	1850	17800	24200	10700	2600	8970	8920	15000	6670	8340	GI50 [21]: 2810 nM; GI50 [22]: 7880 nM; GI50 [24]: 11300 nM; GI50 [25]: 11700 nM; GI50 [26]: 11800 nM; GI50 [27]: 5060 nM; GI50 [28]: 4310 nM; GI50 [29]: 7100 nM; GI50 [30]: 8450 nM; GI50 [31]: 9300 nM
